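Test compounds were applied to cells in 96-well plates for 48 hours at 5 doses. The concentration for 50% growth inhibition is given as GI50. TGI denotes the concentration required for complete inhibition of growth.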
Experiments:
Assay in all cases: NCI tumour cell line growth inhibition, 48 h
SNB-78 CNS = tested on: SNB-78 CNS
RXF-631 renal = tested on: RXF-631 renal
KM20L2 colon = tested on: KM20L2 colon
XF 498 CNS = tested on: XF 498 CNS
DMS 114 small cell lung = tested on: DMS 114 small cell lung
SN12K1 renal = tested on: SN12K1 renal
P388 leukemia = tested on: P388 leukemia
M19-MEL melanoma = tested on: M19-MEL melanoma
P388/ADR leukemia = tested on: P388/ADR leukemia
DMS 273 small cell lung = tested on: DMS 273 small cell lung
DLD-1 colon = tested on: DLD-1 colon

Structure (SMILES)	TGI (SNB-78 CNS) [µM]	TGI (RXF-631 renal) [µM]	TGI (KM20L2 colon) [µM]	TGI (XF 498 CNS) [µM]	TGI (DMS 114 small cell lung) [µM]	TGI (SN12K1 renal) [µM]	TGI (P388 leukemia) [µM]	TGI (M19-MEL melanoma) [µM]	TGI (P388/ADR leukemia) [µM]	TGI (DMS 273 small cell lung) [µM]	TGI (DLD-1 colon) [µM]	GI50 (XF 498 CNS) [µM]
O=P1(N(CCCl)CCCl)NCCCO1 (stereo not given)	> 216	> 250	> 250	180	> 250	> 250	> 250	> 250	> 229	> 250	> 250	
NNc1nnc(-c2ccccc2)nc1Cc1ccccc1			> 100	79.3	17			> 100		> 100	> 100	
CCOC(=O)/C(C1=N[C@H](C(=O)OCC)CS1)=C(\O)c1ccccc1	> 100	> 100	> 100	> 100							> 100	
Cc1cccc(=O)c([O-])c1.Cc1cccc(=O)c([O-])c1.Cc1cccc(=O)c([O-])c1.Cc1cccc(=O)c([O-])c1.[Th+4]	> 100		> 100	64.9	15.6			61.8		33	> 100	23.3
Cc1cc(=O)[nH]c(NN2C(Cl)C(=O)C2c2ccco2)n1 (stereo not given)	> 100		> 100		> 100			> 100		> 100		
O=C(NCCNCCO)N/N=C/c1ccccc1	> 100			> 100	> 100					> 100	> 100	
